Source: ChEMBL document CHEMBL3885881, “DrugMatrix”

Species: Rattus norvegicus
Experiment: DrugMatrix - Regimen: Daily Repeat
Type: toxicity, organism-based, Sprague-Dawley
Parameters: regimen Daily Repeat, gender Male, age 6-8 weeks
Conditions: in vivo, po, route oral GAVAGE, […]; for ABSOLUTE BASOPHIL / ABSOLUTE EOSINOPHIL / ABSOLUTE LYMPHOCYTE / ABSOLUTE MONOCYTE / ABSOLUTE SEGMENTED NEUTROPHIL / BASOPHIL / EOSINOPHIL / ERYTHROCYTE COUNT / HEMATOCRIT / HEMOGLOBIN / LEUKOCYTE COUNT / LYMPHOCYTE / MEAN CORPUSCULAR HEMOGLOBIN / MEAN CORPUSCULAR HEMOGLOBIN CONCENTRATION / MEAN CORPUSCULAR VOLUME / MONOCYTE / NEUTROPHIL / NUCLEATED RED BLOOD CELLS / PLATELET COUNT: tissue Blood; for ALANINE AMINOTRANSFERASE / ALBUMIN / ALKALINE PHOSPHATASE / ASPARTATE AMINOTRANSFERASE / BLOOD UREA NITROGEN / CARBON DIOXIDE / CHLORIDE / CHOLESTEROL / CREATINE PHOSPHOKINASE / CREATININE / GLUCOSE / LACTATE DEHYDROGENASE / LIPASE / PHOSPHORUS / POTASSIUM / SODIUM / TOTAL BILIRUBIN / TOTAL PROTEIN / URIC ACID: tissue Plasma
[1] = 0 mg/kg, 72 h, dose level Control, time 3 day
[2] = 0 mg/kg, 120 h, dose level Control, time 5 day
[3] = 20 mg/kg, 72 h, dose level Low, time 3 day
[4] = 20 mg/kg, 120 h, dose level Low, time 5 day

O=c1c(-c2ccc(O)cc2)coc2cc(O)cc(O)c12 [GENISTEIN]
ABSOLUTE BASOPHIL [1]: 0 CELLS/uL | ABSOLUTE EOSINOPHIL [1]: 14 CELLS/uL | ABSOLUTE LYMPHOCYTE [1]: 11144.67 CELLS/uL | ABSOLUTE MONOCYTE [1]: 22.5 CELLS/uL | ABSOLUTE SEGMENTED NEUTROPHIL [1]: 535.5 CELLS/uL | BASOPHIL [1]: 0% | EOSINOPHIL [1]: 0.17% | ERYTHROCYTE COUNT [1]: 5.08 x10E6/uL | HEMATOCRIT [1]: 32.32% | HEMOGLOBIN [1]: 12.87 G/DL | LEUKOCYTE COUNT [1]: 11.72 x10E3/uL | LYMPHOCYTE [1]: 94.67% | MEAN CORPUSCULAR HEMOGLOBIN [1]: 25.37 pg | MEAN CORPUSCULAR HEMOGLOBIN CONCENTRATION [1]: 39.85 G/DL | MEAN CORPUSCULAR VOLUME [1]: 63.58 fL | MONOCYTE [1]: 0.17% | NEUTROPHIL [1]: 5% | NUCLEATED RED BLOOD CELLS [1]: 0 /100WBC | PLATELET COUNT [1]: 1084 x10E3/uL | ALANINE AMINOTRANSFERASE [1]: 67.5 u/L | ALBUMIN [1]: 4.02 G/DL | ALKALINE PHOSPHATASE [1]: 374.17 u/L | ASPARTATE AMINOTRANSFERASE [1]: 83.5 u/L | BLOOD UREA NITROGEN [1]: 14.5 mg/dL | CARBON DIOXIDE [1]: 30 mmol/L | CHLORIDE [1]: 100.5 MEQ/L | CHOLESTEROL [1]: 71.33 mg/dL | CREATINE PHOSPHOKINASE [1]: 268.33 u/L | CREATININE [1]: 0.16 mg/dL | GLUCOSE [1]: 170.5 mg/dL | LACTATE DEHYDROGENASE [1]: 81.17 u/L | LIPASE [1]: 16.67 u/L | PHOSPHORUS [1]: 10.07 mg/dL | POTASSIUM [1]: 5.03 MEQ/L | SODIUM [1]: 142.92 MEQ/L | TOTAL BILIRUBIN [1]: 0.17 mg/dL | TOTAL PROTEIN [1]: 5.63 G/DL | URIC ACID [1]: 0.5 mg/dL | ABSOLUTE BASOPHIL [2]: 0 CELLS/uL | ABSOLUTE EOSINOPHIL [2]: 37.5 CELLS/uL | ABSOLUTE LYMPHOCYTE [2]: 8049.5 CELLS/uL | ABSOLUTE MONOCYTE [2]: 82.83 CELLS/uL | ABSOLUTE SEGMENTED NEUTROPHIL [2]: 646.83 CELLS/uL | BASOPHIL [2]: 0% | EOSINOPHIL [2]: 0.5% | ERYTHROCYTE COUNT [2]: 5.36 x10E6/uL | HEMATOCRIT [2]: 33.9% | HEMOGLOBIN [2]: 13.02 G/DL | LEUKOCYTE COUNT [2]: 8.82 x10E3/uL | LYMPHOCYTE [2]: 90.17% | MEAN CORPUSCULAR HEMOGLOBIN [2]: 24.32 pg | MEAN CORPUSCULAR HEMOGLOBIN CONCENTRATION [2]: 38.42 G/DL | MEAN CORPUSCULAR VOLUME [2]: 63.32 fL | MONOCYTE [2]: 1.17% | NEUTROPHIL [2]: 8.17% | NUCLEATED RED BLOOD CELLS [2]: 0.17 /100WBC | PLATELET COUNT [2]: 1231.5 x10E3/uL | ALANINE AMINOTRANSFERASE [2]: 62 u/L | ALBUMIN [2]: 3.97 G/DL | ALKALINE PHOSPHATASE [2]: 303.67 u/L | ASPARTATE AMINOTRANSFERASE [2]: 84.5 u/L | BLOOD UREA NITROGEN [2]: 14.83 mg/dL | CARBON DIOXIDE [2]: 31.83 mmol/L | CHLORIDE [2]: 97 MEQ/L | CHOLESTEROL [2]: 68.83 mg/dL | CREATINE PHOSPHOKINASE [2]: 411.33 u/L | CREATININE [2]: 0.16 mg/dL | GLUCOSE [2]: 170.17 mg/dL | LACTATE DEHYDROGENASE [2]: 88.5 u/L | LIPASE [2]: 9.5 u/L | PHOSPHORUS [2]: 9.98 mg/dL | POTASSIUM [2]: 5.72 MEQ/L | SODIUM [2]: 141.62 MEQ/L | TOTAL BILIRUBIN [2]: 0.1 mg/dL | TOTAL PROTEIN [2]: 5.67 G/DL | URIC ACID [2]: 0.52 mg/dL | ABSOLUTE BASOPHIL [3]: 0 CELLS/uL | ABSOLUTE EOSINOPHIL [3]: 0 CELLS/uL | ABSOLUTE LYMPHOCYTE [3]: 8352.33 CELLS/uL | ABSOLUTE MONOCYTE [3]: 117.33 CELLS/uL | ABSOLUTE SEGMENTED NEUTROPHIL [3]: 697 CELLS/uL | BASOPHIL [3]: 0% | EOSINOPHIL [3]: 0% | ERYTHROCYTE COUNT [3]: 4.71 x10E6/uL | HEMATOCRIT [3]: 30.2% | HEMOGLOBIN [3]: 12.1 G/DL | LEUKOCYTE COUNT [3]: 9.17 x10E3/uL | LYMPHOCYTE [3]: 91% | MEAN CORPUSCULAR HEMOGLOBIN [3]: 25.73 pg | MEAN CORPUSCULAR HEMOGLOBIN CONCENTRATION [3]: 40.07 G/DL | MEAN CORPUSCULAR VOLUME [3]: 64.27 fL | MONOCYTE [3]: 1.33% | NEUTROPHIL [3]: 7.67% | NUCLEATED RED BLOOD CELLS [3]: 0 /100WBC | PLATELET COUNT [3]: 970.67 x10E3/uL | ALANINE AMINOTRANSFERASE [3]: 69.33 u/L | ALBUMIN [3]: 3.73 G/DL | ALKALINE PHOSPHATASE [3]: 415.33 u/L | ASPARTATE AMINOTRANSFERASE [3]: 87 u/L | BLOOD UREA NITROGEN [3]: 14 mg/dL | CARBON DIOXIDE [3]: 31.33 mmol/L | CHLORIDE [3]: 101.33 MEQ/L | CHOLESTEROL [3]: 55.33 mg/dL | CREATINE PHOSPHOKINASE [3]: 256 u/L | CREATININE [3]: 0.16 mg/dL | GLUCOSE [3]: 157.33 mg/dL | LACTATE DEHYDROGENASE [3]: 72 u/L | LIPASE [3]: 10.33 u/L | PHOSPHORUS [3]: 9.33 mg/dL | POTASSIUM [3]: 5.54 MEQ/L | SODIUM [3]: 144.67 MEQ/L | TOTAL BILIRUBIN [3]: 0.2 mg/dL | TOTAL PROTEIN [3]: 5.43 G/DL | URIC ACID [3]: 0.37 mg/dL | ABSOLUTE BASOPHIL [4]: 0 CELLS/uL | ABSOLUTE EOSINOPHIL [4]: 0 CELLS/uL | ABSOLUTE LYMPHOCYTE [4]: 8287 CELLS/uL | ABSOLUTE MONOCYTE [4]: 65 CELLS/uL | ABSOLUTE SEGMENTED NEUTROPHIL [4]: 1548 CELLS/uL | BASOPHIL [4]: 0% | EOSINOPHIL [4]: 0% | ERYTHROCYTE COUNT [4]: 4.93 x10E6/uL | HEMATOCRIT [4]: 31.57% | HEMOGLOBIN [4]: 12.13 G/DL | LEUKOCYTE COUNT [4]: 9.9 x10E3/uL | LYMPHOCYTE [4]: 84% | MEAN CORPUSCULAR HEMOGLOBIN [4]: 24.67 pg | MEAN CORPUSCULAR HEMOGLOBIN CONCENTRATION [4]: 38.43 G/DL | MEAN CORPUSCULAR VOLUME [4]: 64.13 fL | MONOCYTE [4]: 1% | NEUTROPHIL [4]: 15% | NUCLEATED RED BLOOD CELLS [4]: 0.33 /100WBC | PLATELET COUNT [4]: 1213.67 x10E3/uL | ALANINE AMINOTRANSFERASE [4]: 61.33 u/L | ALBUMIN [4]: 3.83 G/DL | ALKALINE PHOSPHATASE [4]: 296.67 u/L | ASPARTATE AMINOTRANSFERASE [4]: 87.33 u/L | BLOOD UREA NITROGEN [4]: 17 mg/dL | CARBON DIOXIDE [4]: 33 mmol/L | CHLORIDE [4]: 98.5 MEQ/L | CHOLESTEROL [4]: 69.67 mg/dL | CREATINE PHOSPHOKINASE [4]: 277.33 u/L | CREATININE [4]: 0.12 mg/dL | GLUCOSE [4]: 143.33 mg/dL | LACTATE DEHYDROGENASE [4]: 87.67 u/L | LIPASE [4]: 11.67 u/L | PHOSPHORUS [4]: 10.4 mg/dL | POTASSIUM [4]: 5.69 MEQ/L | SODIUM [4]: 143.35 MEQ/L | TOTAL BILIRUBIN [4]: 0.0667 mg/dL | TOTAL PROTEIN [4]: 5.57 G/DL | URIC ACID [4]: 0.43 mg/dL
